Laboratory results as given in US20240252472A1, “COMBINATIONS FOR TREATING CANCER” (Purdue Pharma L.P., priority 2023, published 2024).

Columns and labels:
[1] = tested on: MM cell lines (MM.1S, RPMI-8226, MOLP-8); assay: Daratumumab-mediated ADCC on pre-treated MM cells; format: cell-based, human; conditions: pre-treatment 2.5 μM 48 hours, NK cells 1:1 + daratumumab 1 μg/mL, 4 hours, vs DMSO-pretreated
Experimental: ADCC, CDC and apoptosis via cross-linking To assess the effect of tinostamustine pre-treatment on cytotoxic mechanisms mediated by daratumumab, MM cell lines were first incubated in presence of tinostamustine (2.5 μM) or DMSO for 48 hours. Cells were then washed to remove tinostamustine or DMSO from the culture medium, and the corresponding cytotoxic assay (ADCC, CDC or apoptosis via cross-linking) was performed.
For the evaluation of ADCC, tinostamustine or DMSO pre-treated cells were cocultured with NK cells obtained from healthy donors in the presence of daratumumab (1 μg/ml) or the corresponding isotype control for 4 hours (ratio 1:1). Briefly, peripheral blood mononuclear cells (PBMCs) were isolated from healthy donor buffy coats by Lymphoprep density gradient centrifugation. […] In all three assays, the cytotoxic effect on MM cells was evaluated by flow cytometry with Annexin V/7AAD staining after treatment with daratumumab. […]
MM cells (MM1.S, RPMI-8226, MOLP-8 cells pre-treated with 0 or 2.5 μM EDO-S101 in accordance with the methods outlined above) were co-cultured with NK-cells (ratio 1:1), in the presence of daratumumab (1 μg/mL) or the corresponding isotype control, for 4 hours at 37° C. […] ADCC was then evaluated using flow cytometry in accordance with the methods outlined above, using the following panel: CD38me-FITC/AnnexinV-PE/7AAD/CD45-APC.

[2] = tested on: subcutaneous plasmacytoma derived from MM.1S cells; assay: First subcutaneous plasmacytoma model, NSG mice with human NK cells; format: in vivo; conditions: EDO-S101 30 mg/kg i.v. weekly, daratumumab 8 mg/kg i.p. weekly, 4 weeks; vehicle 30 days
Experimental: For the first subcutaneous human plasmacytoma model, NSG mice (Charles River Laboratories, Wilmington, MA, USA) were subcutaneously inoculated into the right flank with 3×10^6 MM1S in 100 μL RPMI 1640 medium and 100 μL of Matrigel (BD Biosciences). When tumors developed, mice were injected with human NK cells isolated from buffy coats from healthy donors and randomized (4 mice/group) to receive: EDO-S101 (30 mg/kg, iv weekly), daratumumab (8 mg/kg, ip weekly), a combination thereof, or vehicle (PBS vehicle solution with 15% HPBCD, 1.5% acetic acid, and 1.25% NaHCO3). Both, NK cells and the treatments were administered over four consecutive weeks. Caliper measurements of the tumor diameters were performed three times a week, and the tumor volume was estimated as the volume of a 3D ellipse using the following formula: V=4/3π×(a/2)×(b/2)^2, where “a” and “b” correspond to the longest and shortest diameter, respectively. Animals were killed when their tumors reached 2 cm. Differences in tumor volumes between control and treated groups were evaluated using one-way analysis of variance and Dunn's post-hoc tests. […]

[3] = tested on: CD38 expressed on MM cells; assay: Daratumumab binding to myeloma cells pre-treated with EDO-S101, flow cytometry; format: cell-based, human; conditions: JJN3, RPMI-8226, MOLP-8; EDO-S101 1 or 2.5 μM 48 h, then daratumumab 10 μg/ml
Experimental: Evaluation of daratumumab binding to myeloma cells To evaluate daratumumab binding to myeloma cells, MM cell lines were first pre-treated with tinostamustine (1 or 2.5 μM) or DMSO for 48 hours. Then cells were washed to remove tinostamustine or DMSO from the culture medium, and daratumumab (10 μg/ml) was added and incubated for 30 minutes. After that time, cells were washed with PBS twice and incubated during 30 additional minutes with anti-human-IgG1-AlexaFluor488 (Invitrogen, Carlsbad, CA, USA). Cells were acquired in a FACSCalibur cytometer and normalized MFI was calculated as described above.
Flow cytometry was used to analyse the binding of daratumumab to MM cells pre-treated with EDO-S101. The anti-human-IgG1-Alexa Fluor 488 (Invitrogen, Carlsbad, CA, USA) antibody recognizes and binds daratumumab's Fc region and, therefore, it can be detected using flow cytometry.
MM cells (JJN3, MM1.S, RPMI-8226, MOLP-8) were treated with EDO-S101 (1 μM or 2.5 μM) in accordance with the general methods outlined above. Following treatment, the cells were washed with PBS, and incubated at 37° C. for 30 minutes with 10 μg/ml daratumumab. Cells were then washed with PBS, anti-human-IgG1-Alexa Fluor 488 was added, and the cells were incubated at 37° C. for a further 30 minutes. […]

With `Cn1c(CCCCCCC(=O)NO)nc2cc(N(CCCl)CCCl)ccc21` [EDO-S101, 7-(5-(bis(2-chloroethyl)amino)-1-methyl-1H-benzo[d]imidazol-2-yl)-N-hydroxyheptanamide] the “percentage of dead myeloma cells, daratumumab-mediated ADCC” value [1] was “significantly enhanced”, the “percentage of dead myeloma cells, daratumumab-mediated ADCC” value ([1]; listed as tinostamustine) was “higher” and the median survival [2] was 48 days. For the same molecule, the “binding of daratumumab to MM cells (normalized MFI)” value [3] was “increases”.
